In patent US11229635B2, “Method of treating fibrosis” (BCN Biosciences L.L.C., priority 2016, dated 2022):

How the values were obtained:
[1] = tested on: human A549 adenocarcinoma cells; assay: A549 xenograft lung colony model in nude mice; type: in vivo; details: 20 mg/kg sc once daily for 5 days, with or without 4 Gy LTI x 3, day 72
Method: LTI alone decreased the number of co […] lonies by 40%. Extensive analysis of the drug doses that would be optimal for exerting effects on tumors in the radiation setting are still needed, but there is no evidence for enhanced tumor growth as a result of radiation treatment with drug, and in fact exactly the opposite. […] Thirty-two nude mice were injected intravenously with 5×10^4 human A549 adenocarcinoma cells on day 1. The drug was administered starting at day 3; 20 mg/kg BCN512 was injected subcutaneously once daily for 5 days. Fractionated radiation was started on day 4, with 4 Gy LTI administered daily for 3 days. Tumors developed very slowly, so the mice were sacrificed on day 72 and the number of nodules in the lungs were counted. There was considerable variation in the irradiated group, with a tendency for lung irradiation to increase the number of tumor colonies. This is not a unique observation that may be ascribed to radiation-induced myeloid cell mobilization.

[2] = tested on: bone marrow hematopoietic stem cells (HSCs); assay: Total body irradiation survival (hematopoietic suppression); type: in vivo, C3H/HeN mice
Method: FIG. 8A-C: (A) Kaplan Meier Plot of Male C3H/HeN mice 7.75Gy 30 Day TBI (n=30) 50 mg/kg BCN057. (B). Kaplan Meier Plot of Female C3H/HeN mice 7.75Gy 30 Day TBI (n=10) 25 mg/kg BCN057. (C) Cytokine Profile in Plasma Male C3H/HeN mice 7.75Gy TBI Day 8 receiving BCN057.
7.75 Gy radiation is used to ablate bone marrow hematopoietic stem cells (HSCs) in these strains of mice. […] Lethality from bone marrow suppression occurs in the 14-25 day region due to the life cycle of approximately 2 weeks for RBC and inability to replace them without HSCs
7.73 Gy radiation is used to ablate bone marrow HSCs in the C3H strain of mice.

lung organoids = assay: Ex vivo 3D lung organoid culture after radiation; type: cell-based, mice; details: 6 Gy; 28 μM at 1-hour post-radiation exposure
Method: 512 induces lung organoid growth in ex vivo cultures: Ex vivo 3D organoid cultures are one of the best models for studying stem cell growth and proliferation because organoid growth depends primarily on the presence of stem cells. For these experiments, mice were euthanized by CO2 or ketamine-xylazine administration and the abdominal aorta was exposed and exsanguinated. The thoracic cavity was opened, and the lungs were exposed. Blood was flushed from the lung vasculature by perfusion with 10 mL of sterile cold PBS through the right ventricle. The trachea was cannulated with a 24-G cannula, and 1.2 mL of 10 U dispase (BD) was then injected into the lungs. The trachea and lungs were removed from the chest en-block and incubated for 20 minutes at room temperature (RT). The lung lobes were dissected from the trachea, heart, and rest of mediastinal structures and then finely minced and incubated for 10 more min with 2 mL of dispase. The suspension was passed through an 18-G needle 4-5 times to help open the lung compartments. If sticky DNA was detected, 10-30 μL of 4 mg/mL DNase I (Sigma) was added to the cell suspension and incubated at 37° C. for 5 min. The cells were filtered through a 100-μ cell strainer (BD Biosciences) to obtain single-cell suspensions (SCS). Red blood cells were lysed using RBC lysing buffer. […]

O=[N+]([O-])c1ccc(S(=O)(=O)N2CCN(c3ccccc3)CC2)cc1 [BCN512, 1-[(4-nitrobenezene)sulfonyl]-4-phenyl piperazine]
number of tumor colonies (lung nodules) [1]: did not increase the number of tumor colonies | lethality from bone marrow suppression ([2]; 7.73 Gy TBI, C3H strain of mice): sufficient to prevent lethality from bone marrow suppression | efficacy in total body irradiation experiments ([2]; Deoxycholate formulation, subcutaneously): good efficacy | lung organoid growth (lung organoids): mitigated the radiation damage and induced lung organoid growth
